Where two headings read alike, the source gives them in different places. Marks after values point to notes of the source that are not given here.
Columns and labels:
[1] = literature; cited from earlier work
[2] = molecular target: T1, E. coli-originating thymidine phospholylase (Escherichia coli, UniProt P07650); conditions: for 5-IU production rate: 0.5–12.0 nmol labeled compound, 0.0009–9.0 units enzyme, n = 3; for 5-IU production rate / metabolic stability of glycosidic bond compared with [I-125] IUR: 25° C.; for Relative activity (C—N glycosidic linkage cleavage): relative to [I-125]IUR = 1.00; for metabolic stability of glycosidic bond compared with [I-125] IUR: thymidine phospholylase
T1 sequence (P07650 whole entry): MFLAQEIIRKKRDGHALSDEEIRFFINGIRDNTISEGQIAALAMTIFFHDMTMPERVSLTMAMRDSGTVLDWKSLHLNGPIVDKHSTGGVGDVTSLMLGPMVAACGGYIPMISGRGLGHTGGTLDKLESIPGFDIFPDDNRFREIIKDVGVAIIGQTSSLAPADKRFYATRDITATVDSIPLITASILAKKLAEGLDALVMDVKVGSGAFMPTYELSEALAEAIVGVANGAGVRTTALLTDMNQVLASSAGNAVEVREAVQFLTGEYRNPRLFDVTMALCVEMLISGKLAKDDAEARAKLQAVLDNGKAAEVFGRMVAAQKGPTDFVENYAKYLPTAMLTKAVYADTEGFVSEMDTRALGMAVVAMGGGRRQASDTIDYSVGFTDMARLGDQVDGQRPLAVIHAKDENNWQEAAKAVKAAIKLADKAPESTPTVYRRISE
Protocol: To the reaction liquid, 0.5–12.0 nmol of the labeled compound and 0.0009–9.0 units of a liquid enzyme (Sigma Corporation) was added and reacted at 25° C. for a fixed period of time, followed by treatment in a boiling water bath for 3 minutes to stop the reaction. […] The reaction liquid was subjected to centrifugal separation, and the supernatant was applied over a silica gel plate along with an authentic standard (5-iodouridine: IU) and a non-labeled parent compound. It was developed with a mixture of chloroform and isopropyl alcohol (3:1), and then the autoradiogram was measured with a bioimaging analyzer (BAS-1500, Fuji Photo Film Co., Ltd.). The area of interest was set to peak components of the Rf value corresponding to the authentic standard, and the amount of the resulting metabolite was calculated from its proportion in percentage. […] FITAU and [I-125] IMBAU, a reversed phase silica gel plate was used, and after development with a mixture of methanol and water (3:7), an autoradiogram was measured with a bioimaging analyzer (BAS-1500; Fuji Photo Film Co., Ltd.) similarly to the [I-125] IUR and others.

[3] = in vivo label stability, accumulation of free iodine in thyroid gland (Example 17); conditions: 185 KBq into tail vein, 10 week old normal mice (C57BL/6), longer intervals, FIG. 8
Protocol: To evaluate in vivo stability of deiodination against each radioactive iodine-labeled nucleic acid derivative, tests were conducted to study accumulation of free iodine in the thyroid gland of normal mice. A 185 KBq of each labeled compound was injected in each of 10 week old normal mice (C57BL/6) into the tail vein, and three animals were sacrificed and anatomized at intervals longer than in Example 16. Incorporation of radioactivity in the thyroid gland was measured with an automatic well-type gamma counter (ARC-300, Aloka Co., Ltd.). Incorporated radioactivity in tissue (% ID) was calculated as the administrated per gram of the tissue, and represented in percentage, as shown in FIG. 8.

[4] = tested on: L-M (TK-) cells; assay: incorporation of labeled compounds into thymidine kinase-deficient L-M (TK-) cells; format: cell-based; conditions: 2 nmol labeled compound, one hour
Protocol: (§1) L-M and L-M (TK-) cells in the logarithmic growth phase were planted on 24-well plates, each carrying 2.0×10^5 cells, and cultured overnight. Then 2 nmol of a radioactive iodine-labeled nucleic acid derivative was added and allowed to be incorporated in the cells for one hour. The cells were washed three times with an ice-cooled phosphate buffer solution, and dissolved in 0.1N NaOH, followed by determination of degree of radioactivity incorporated in the cells using an automatic well-type gamma counter (ARC-380 or ARC-300, Aloka Co., Ltd.). Measurements were analyzed to make evaluations based on the amount of the incorporated label molecules per unit weight of cellular proteins. […] ITdU and [I-125] […] IUR as a control.

[5] = tested on: L-M cells; assay: incorporation of labeled compounds into L-M cells; format: cell-based; conditions: for Incorporation, L-M: 2 nmol labeled compound, one hour, L-M cells; for thymidine kinase-dependent incorporation into cells: L-M versus L-M (TK-) cells; for (L-M)/{L-M(TK-)}: ratio of incorporation, L-M to L-M (TK-), T-test
Protocol: as §1

[6] = tested on: Walker tumor; assay: scintigraphy of Walker tumor; format: in vivo; conditions: 37 MBq into tail vein, four hours after administration, Walker tumor in Wistar rats, FIG. 11
Protocol: Malignant tumor, a typical proliferative disease, was observed by scintigraphy. Walker tumor cells were transplanted subcutaneously in the right inguinal region of Wistar rats. After the transplantation, 37 MBq of [I-123] ITDU was injected into the tail vein of rats that suffered a palpable tumor of about 20 mm that was suitable for scintigraphy. Each tumor-transplanted rat was anesthetized with Ravonal four hours after the administration of a drug. Then the rat was fixed in the face-up position and observed statically with gamma-camera imaging equipment (GCA-90B, Toshiba Corporation). Imaging was performed using a high-resolution medium-energy collimator to obtain images for 10 minutes with a resolution of 256×256.

[7] = molecular target: T1, E. coli-originating thymidine phospholylase; conditions: for 5-iodouridine production rate: 2 nmole labeled compound, 9 units enzyme, n = 3; for 5-iodouridine production rate / metabolic stability of glycosidic bond compared with [I-125] IUR: 25° C.; for relative activity (C—N glycosidic bond cleavage): relative to [I-125]IUR = 1.00; for metabolic stability of glycosidic bond compared with [I-125] IUR: thymidine phospholylase
Protocol: To the reaction liquid, 2 nmole of the labeled compound and 9 units of a liquid enzyme (Sigma Corporation) were added and reacted at 25° C. for a fixed period of time, and the reaction was stopped by treatment in a boiling water bath for 3 minutes. The reaction liquid was subjected to centrifugal separation, and the supernatant was applied over a thin layer silica gel plate along with an authentic standard (5-iodouridine: IU) and a non-labeled parent compound. It was developed with a mixture of chloroform and isopropyl alcohol (3:1), and then autoradiography was measured with a bioimaging analyzer (BAS-1500, Fuji Photo Film Co., Ltd.). The area of interest was set to peak components of the Rf value corresponding to the authentic standard, and the amount of the resulting metabolite was calculated from its proportion in percentage.

[8] = tested on: thymidine kinase; assay: in vitro phosphorylation activity by thymidine kinase (crude enzyme from LL/2 cells); format: biochemical, mouse; conditions: for phosphorylation activity attributed to thymidine kinase: crude enzyme from LL/2 cells; for Phosphorylated material production rate: crude enzyme from LL/2 mouse lung cancer cells, 2 nmole labeled compound, ATP, 37° C., n = 3
Protocol: Liquid enzyme was extracted from a LL/2 mouse's lung cancer cell strain in the logarithmic growth phase according to the method of Wolcott R M and Colacino J M (Anal. Biochem 178, p.38–40 (1989)). To a reaction liquid containing ATP, which is a phosphate donor, 2 nmole of the label compound and the liquid enzyme were added and reacted at 37° C. for a fixed period of time. The reaction was stopped by adding 1 mL of a 100 mM lanthanum chloride/5 mM triethanolamine solution. Phosphorylated material was prepared by centrifugal separation to form a phosphate-metal complex, followed by measuring a radioactivity of the resulting precipitate with an automatic well-type gamma counter (ARC-380, Aloka Co., Ltd.). […] ITDU and [I-125] ITAU.

[9] = in vivo distribution of [I-125] ITDU in normal mice; conditions: 370 KBq into tail vein, FIG. 9
Protocol: A 370 KBq of [I-125] ITDU was injected in each of 10 week old normal mice into the tail vein, and three animals were sacrificed and anatomized at appropriate intervals. Incorporation of radioactivity in each tissue sample was measured with an automatic well-type gamma counter (ARC-300, Aloka Co., Ltd.). Incorporated radioactivity in tissue was calculated as the administrated dose per gram of the tissue, and represented in percentage, as shown in FIG. 9.

[10] = in vivo label stability, accumulation of free iodine in thyroid gland (Example 16); conditions: 370 KBq into tail vein, 10 week old normal mice, FIG. 7
Protocol: To evaluate in vivo label stability of [I-125] ITDU and [I-125] ITAU, tests were conducted to study the accumulation of free iodine in the thyroid gland in normal mice. […] For a control, in vivo distribution of [I-125] IUR was also observed. […] Incorporated radioactivity in tissue was calculated as the administrated dose per gram of the tissue per unit time, and represented in percentage, as shown in FIG. 7. […] ITDU and [I-125]

[11] = in vivo accumulation in proliferating tissues of normal mice; conditions: 185 MBq through tail vein, normal mice (C57BL/6), FIG. 10
Protocol: To evaluate the accumulation of each radioactive iodine-labeled nucleic acid derivative in proliferating tissues, tests were conducted to study in vivo distribution in normal mice. A 185 MBq of each labeled compound was injected in each of 10 week old normal mice (C57BL/6) through its tail vein, and three animals were sacrificed and anatomized at appropriate intervals. Incorporation of radioactivity in each tissue sample was measured with an automatic well-type gamma counter (ARC-300, Aloka Co., Ltd.). Incorporated radioactivity in tissue was calculated as the administrated dose per unit weight of the tissue, and represented in percentage (% ID/g).

For `O=c1[nH]c(=O)n([C@H]2C[C@H](O)[C@@H](CO)O2)cc1I` [5-iodo-deoxyuridine], the stability in vivo [1] is listed as “decomposed rapidly in vivo”.
With `O=c1[nH]c(=O)n([C@@H]2S[C@H](CO)[C@@H](O)[C@@H]2F)cc1[125I]` [[I-125] FITAU, [I-125]-5-iodo-1-(2-deoxy-2-fluoro-4-thio-β-D-arabinopentofuranosyl)uracil] the 5-IU production rate [2] was 0.5 ± 0.1 pmol/units/0.5 h, the “Relative activity (C—N glycosidic linkage cleavage)” value [2] was <0.00001 and the “metabolic stability of glycosidic bond compared with [I-125] IUR” value [2] was “still stabler than [I-125] IUR”. The “accumulated radioactivity in the thyroid gland (in vivo label stability)” value [3] was “significantly smaller than that from the control [I-125] IUR”, the “Incorporation, L-M (TK−)” value [4] was 0.21 ± 0.05 pmol/mg protein/h and the “Incorporation, L-M” value [5] was 0.34 ± 0.05 pmol/mg protein/h. The “thymidine kinase-dependent incorporation into cells” value [5] was “incorporated in cells in a thymidine kinase dependent way” and the “(L-M)/{L-M(TK-)}” value [5] was 1.62***.
In the case of `Cc1cn([C@H]2C[C@H](F)[C@@H](CO)O2)c(=O)[nH]c1=O` [3′-deoxy-3′-fluorothymidine], the stability in vivo [1] is listed as “high stability in vivo”.
In the case of `O=c1[nH]c(=O)n([C@H]2C[C@H](O)[C@@H](CO)S2)cc1[123I]` [[I-123] ITDU, [I-123]-5-iodo-4′-thio-2′-deoxyuridine], the “scintigraphic imaging of transplanted tumor” value [6] is reported as “clear imaging of transplanted tumors”.
In the case of `Cn1c(=O)c([125I])cn([C@@H]2O[C@H](CO)[C@@H](O)[C@@H]2Br)c1=O` [[I-125] IMBAU, [I-125]-5-iodo-1-methyl-(2-deoxy-2-bromo-β-D-arabinopentofuranosyl)uracil], the 5-IU production rate [2] is reported as 0.0 pmol/units/0.5 h, the “stability under heat treatment” value ([2]; boiling water bath for 3 minutes used to stop the reaction) is reported as “unstable under heat treatment” and the “Relative activity (C—N glycosidic linkage cleavage)” value [2] is reported as 0.0. For the same compound, the “metabolic stability of glycosidic bond compared with [I-125] IUR” value [2] was “still stabler than [I-125] IUR” and the “accumulated radioactivity in the thyroid gland (in vivo label stability)” value [3] was “significantly smaller than that from the control [I-125] IUR”.
For `O=c1[nH]c(=O)n([C@H]2C[C@H](O)[C@@H](CO)S2)cc1[125I]` [[I-125] ITDU, [I-125]-5-iodo-4′-thio-2′-deoxyuridine], the 5-IU production rate [2] was 3778.7 ± 692.0 pmol/units/0.5 h, the “accumulated radioactivity in the thyroid gland (in vivo label stability)” value [3] was “significantly smaller than that from the control [I-125] IUR” and the 5-iodouridine production rate [7] was 4075.9 ± 736.4 p mole/units/30 min. For the same compound, the “relative activity (C—N glycosidic bond cleavage)” value [7] was 0.03, the “metabolic stability of glycosidic bond compared with [I-125] IUR” value [7] was “stabler than 5-iododeoxyuridine” and the “phosphorylation activity attributed to thymidine kinase” value [8] was “confirmed”. For the same compound, the “Phosphorylated material production rate” value [8] was 1182.7 ± 100.1 p mole/mg protein/h, the “Incorporation, L-M (TK−)” value [4] was 3.94 ± 0.63 pmol/mg protein/h and the “accumulated radioactivity in proliferating tissues (thymus, small intestine) versus non-proliferating tissues (brain, liver, muscle)” value [9] was “certainly higher than that in non-proliferating tissues”. The “accumulated radioactivity in the thyroid gland (in vivo label stability)” value [10] was “significantly smaller than that from the control [I-125] IUR”, the “accumulation in proliferating tissues (% ID/g)” value [11] was “accumulated in large amounts particularly in the thymus” and the “Incorporation, L-M” value [5] was 10.90 ± 1.48 pmol/mg protein/h. The “thymidine kinase-dependent incorporation into cells” value [5] was “incorporated in cells in a thymidine kinase dependent way” and the “(L-M)/{L-M(TK-)}” value [5] was 2.77*.
With `O=c1[nH]c(=O)n([C@H]2C[C@H](O)[C@@H](CO)O2)cc1I` [[I-125] IUR, 5-iododeoxyuridine, reference compound] the “Relative activity (C—N glycosidic linkage cleavage)” value [2] was 1.00, the “relative activity (C—N glycosidic bond cleavage)” value [7] was 1.00 and the “Incorporation, L-M (TK−)” value [4] was 27.86 ± 2.94 pmol/mg protein/h. For the same compound, the “accumulation in proliferating tissues (% ID/g)” value [11] was “accumulated in large amounts particularly in the thymus”, the “Incorporation, L-M” value [5] was 77.80 ± 7.45 pmol/mg protein/h and the “thymidine kinase-dependent incorporation into cells” value [5] was “incorporated in cells in a thymidine kinase dependent way”. For the same compound, the “(L-M)/{L-M(TK-)}” value [5] was 2.79*.
In the case of `O=c1[nH]c(=O)n(C2S[C@H](CO)[C@@H](O)[C@@H]2O)cc1[125I]` (stereo partly drawn) [[I-125] ITAU, [I-125]-5-iodo-1-(4-thio-D-arabinofuranosyl)uracil], the 5-IU production rate [2] is reported as 514.8 ± 367.0 pmol/units/0.5 h, the “Relative activity (C—N glycosidic linkage cleavage)” value [2] is reported as <0.01 and the “accumulated radioactivity in the thyroid gland (in vivo label stability)” value [3] is reported as “significantly smaller than that from the control [I-125] IUR”. For the same compound, the 5-iodouridine production rate [7] was 524.3 ± 373.8 p mole/units/30 min, the “relative activity (C—N glycosidic bond cleavage)” value [7] was < 0.01 and the “metabolic stability of glycosidic bond compared with [I-125] IUR” value [7] was “stabler than 5-iododeoxyuridine”. For the same compound, the “phosphorylation activity attributed to thymidine kinase” value [8] was “confirmed”, the “Phosphorylated material production rate” value [8] was 13.6 ± 6.6 p mole/mg protein/h and the “Incorporation, L-M (TK−)” value [4] was 1.20 ± 0.20 pmol/mg protein/h. The “accumulated radioactivity in the thyroid gland (in vivo label stability)” value [10] was “significantly smaller than that from the control [I-125] IUR”, the “Incorporation, L-M” value [5] was 1.68 ± 0.28 pmol/mg protein/h and the “(L-M)/{L-M(TK-)}” value [5] was 1.40**.
In the case of `O=c1[nH]c(=O)n([C@@H]2O[C@H](CO)[C@@H](O)[C@@H]2F)cc1I` [2′-fluoro-5-iodoarabinouridine], the stability in vivo [1] is given as “high stability in vivo”.

— patent US7118731B2, “Drugs for the diagnosis of tissue reproductive activity or the treatment of proliferative diseases” (priority 2002, dated 2006)
